Data: ChEMBL document CHEMBL1201861, “Genomics of Drug Sensitity in Cancer screening data, Wellcome Trust Sanger Institute”
Where “and” joins values, the source holds several entries; their conditions need not be identical. Equal entries are not always repeated. Where a SMILES comes first, the peptide text is derived from it. The star is where a group is joined. Cbz = O=C(OCc1ccccc1)*

Legend:
Experiment in all cases: cells
LS-513 = assay type: functional, cell-based, Homo sapiens
Description: SANGER: Inhibition of human LS-513 cell growth in a cell viability assay.

SNU1 = assay type: functional, cell-based, Homo sapiens;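 further: growth inhibition of human NCI-SNU-1 cells, measured with a cell viability assay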
Description: SANGER: Inhibition of human NCI-SNU-1 cell growth in a cell viability assay.

NOS-1 = assay type: functional, cell-based, Homo sapiens;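 further: growth inhibition of the human NOS-1 cell line, read out with a cell viability assay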
Description: SANGER: Inhibition of human NOS-1 cell growth in a cell viability assay.

NCI-H226 = assay type: functional, cell-based, Homo sapiens;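 further: cell viability read-out used to gauge growth inhibition of the cells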
Description: SANGER: Inhibition of human NCI-H226 cell growth in a cell viability assay.

ES7 = assay type: functional, cell-based, Homo sapiens;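 further: growth inhibition of cultured human ES7 cells, read out as cell viability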
Description: SANGER: Inhibition of human ES7 cell growth in a cell viability assay.

Mo = assay type: functional, cell-based, Homo sapiens
Description: SANGER: Inhibition of human Mo-T cell growth in a cell viability assay.

Ramos-2G6-4C10 = assay type: functional, cell-based, Homo sapiens;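 further: growth inhibition of the cell line, measured by a cell viability read-out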
Description: SANGER: Inhibition of human Ramos-2G6-4C10 cell growth in a cell viability assay.

KE-37 = assay type: functional, cell-based, Homo sapiens;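 further: growth inhibition of KE-37 cells, read out with a cell viability assay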
Description: SANGER: Inhibition of human KE-37 cell growth in a cell viability assay.

MHH-NB-11 = assay type: functional, cell-based, Homo sapiens;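 further: growth inhibition of human MHH-NB-11 cells, read out by a cell viability assay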
Description: SANGER: Inhibition of human MHH-NB-11 cell growth in a cell viability assay.

NCI-H747 = assay type: functional, cell-based, Homo sapiens;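 further: growth inhibition of human NCI-H747 cells, read out by a cell viability assay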
Description: SANGER: Inhibition of human NCI-H747 cell growth in a cell viability assay.

BV-173 = assay type: functional, cell-based, Homo sapiens
Description: SANGER: Inhibition of human BV-173 cell growth in a cell viability assay.

TE-9 = assay type: functional, cell-based, Homo sapiens;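 further: cell growth inhibition, measured with a cell viability readout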
Description: SANGER: Inhibition of human TE-9 cell growth in a cell viability assay.

KARPAS-299 = assay type: functional, cell-based, Homo sapiens
Description: SANGER: Inhibition of human KARPAS-299 cell growth in a cell viability assay.

GB-1 = assay type: functional, cell-based, Homo sapiens;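 further: growth of GB-1 cells judged by a viability assay, IC50 marks the concentration inhibiting growth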
Description: SANGER: Inhibition of human GB-1 cell growth in a cell viability assay.

JVM-2 = assay type: functional, cell-based, Homo sapiens;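 further: growth inhibition of JVM-2 cells determined by a cell viability assay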
Description: SANGER: Inhibition of human JVM-2 cell growth in a cell viability assay.

JVM-3 = assay type: functional, cell-based, Homo sapiens;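 further: growth inhibition of human JVM-3 cells, read out with a cell viability assay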
Description: SANGER: Inhibition of human JVM-3 cell growth in a cell viability assay.

COLO-320-HSR = assay type: functional, cell-based, Homo sapiens;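 further: growth inhibition of COLO-320-HSR cells, determined with a cell viability assay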
Description: SANGER: Inhibition of human COLO-320-HSR cell growth in a cell viability assay.

KU812 cell line = assay type: functional, cell-based, Homo sapiens;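 further: growth inhibition of KU812 cells, read out with a cell viability assay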
Description: SANGER: Inhibition of human KU812 cell growth in a cell viability assay.

PSN1 = assay type: functional, cell-based, Homo sapiens;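 further: suppression of growth of human PSN1 cells, read out by a cell viability assay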
Description: SANGER: Inhibition of human PSN1 cell growth in a cell viability assay.

NOMO-1 = assay type: functional, cell-based, Homo sapiens;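 further: growth inhibition of human NOMO-1 cells measured by a cell viability assay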
Description: SANGER: Inhibition of human NOMO-1 cell growth in a cell viability assay.

HH = assay type: functional, cell-based, Homo sapiens
Description: SANGER: Inhibition of human HH cell growth in a cell viability assay.

LU-134-A = assay type: functional, cell-based, Homo sapiens
Description: SANGER: Inhibition of human LU-134-A cell growth in a cell viability assay.

KG-1 = assay type: functional, cell-based, Homo sapiens;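 further: growth inhibition of KG-1 cells, read out by a cell viability assay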
Description: SANGER: Inhibition of human KG-1 cell growth in a cell viability assay.

HCC2157 = assay type: functional, cell-based, Homo sapiens;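 further: growth inhibition of the cancer cell line, read out as cell viability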
Description: SANGER: Inhibition of human HCC2157 cell growth in a cell viability assay.

D-263MG = assay type: functional, cell-based, Homo sapiens
Description: SANGER: Inhibition of human D-263MG cell growth in a cell viability assay.

NTERA-2-cl-D1 = assay type: functional, cell-based, Homo sapiens;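 further: inhibition of cell growth, measured with a cell viability assay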
Description: SANGER: Inhibition of human NTERA-S-cl-D1 cell growth in a cell viability assay.

SW872 = assay type: functional, cell-based, Homo sapiens;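 further: growth inhibition of SW872 cells, read out by a viability assay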
Description: SANGER: Inhibition of human SW872 cell growth in a cell viability assay.

ML-2 = assay type: functional, cell-based, Homo sapiens;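 further: growth inhibition of ML-2 cells, measured with a cell viability readout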
Description: SANGER: Inhibition of human ML-2 cell growth in a cell viability assay.

KLE = assay type: functional, cell-based; conditions: Homo sapiens;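 further: growth inhibition of human KLE cells, read out with a cell viability assay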
Description: SANGER: Inhibition of human KLE cell growth in a cell viability assay.

TE-12 = assay type: functional, cell-based, Homo sapiens;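 further: growth inhibition of TE-12 cells, read out by a cell viability assay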
Description: SANGER: Inhibition of human TE-12 cell growth in a cell viability assay.

MEG-01 = assay type: functional, cell-based, Homo sapiens;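 further: growth inhibition of MEG-01 cells, read out by a cell viability assay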
Description: SANGER: Inhibition of human MEG-01 cell growth in a cell viability assay.

QIMR-WIL = assay type: functional, cell-based, Homo sapiens;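 further: growth inhibition of QIMR-WIL cells, read out with a cell viability assay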
Description: SANGER: Inhibition of human QIMR-WIL cell growth in a cell viability assay.

NH-12 = assay type: functional, cell-based, Homo sapiens;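 further: growth inhibition of NH-12 cells, read out with a cell viability assay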
Description: SANGER: Inhibition of human NH-12 cell growth in a cell viability assay.

KGN = assay type: functional, cell-based, Homo sapiens;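 further: growth inhibition of KGN cells, read out with a cell viability assay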
Description: SANGER: Inhibition of human KGN cell growth in a cell viability assay.

HL-60 = assay type: functional, cell-based, Homo sapiens;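 further: growth inhibition of human HL-60 cells, read out with a cell viability assay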
Description: SANGER: Inhibition of human HL-60 cell growth in a cell viability assay.

OS-RC-2 = assay type: functional, cell-based, Homo sapiens;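 further: growth inhibition of human OS-RC-2 cells, measured by a cell viability assay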
Description: SANGER: Inhibition of human OS-RC-2 cell growth in a cell viability assay.

LB996-RCC = assay type: functional, cell-based, Homo sapiens
Description: SANGER: Inhibition of human LB996-RCC cell growth in a cell viability assay.

LOX IMVI = assay type: functional, cell-based, Homo sapiens
Description: SANGER: Inhibition of human LOXIMVI cell growth in a cell viability assay.

MZ7-mel = assay type: functional, cell-based, Homo sapiens;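 further: growth inhibition of human MZ7-mel cells, measured by a cell viability assay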
Description: SANGER: Inhibition of human MZ7-mel cell growth in a cell viability assay.

NCI-H1650 = assay type: functional, cell-based, Homo sapiens;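 further: growth inhibition of human NCI-H1650 cells measured by a cell viability assay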
Description: SANGER: Inhibition of human NCI-H1650 cell growth in a cell viability assay.

TE-11 = assay type: functional, cell-based; conditions: Homo sapiens;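 further: growth inhibition of human TE-11 cells, read out by a cell viability assay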
Description: SANGER: Inhibition of human TE-11 cell growth in a cell viability assay.

CCRF-CEM = assay type: functional, cell-based, Homo sapiens;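 further: inhibition of CCRF-CEM cell growth, measured by a cell viability assay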
Description: SANGER: Inhibition of human CCRF-CEM cell growth in a cell viability assay.

ES6 = assay type: functional, cell-based; conditions: Homo sapiens;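 further: growth inhibition of human ES6 cells, read out with a cell viability assay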
Description: SANGER: Inhibition of human ES6 cell growth in a cell viability assay.

DSH1 = assay type: functional, cell-based; conditions: Homo sapiens;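 further: growth inhibition of human DSH1 cells, measured with a cell viability readout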
Description: SANGER: Inhibition of human DSH1 cell growth in a cell viability assay.

EW-13 = assay type: functional, cell-based, Homo sapiens; conditions: read-out: IC50;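 further: growth inhibition of EW-13 cells, read out with a cell viability assay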
Description: SANGER: Inhibition of human EW-13 cell growth in a cell viability assay.

ES8 = assay type: functional, cell-based, Homo sapiens;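 further: growth inhibition of human ES8 cells, read out with a cell viability assay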
Description: SANGER: Inhibition of human ES8 cell growth in a cell viability assay.

SF-539 = assay type: functional, cell-based, Homo sapiens;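 further: Read-out is a cell viability assay, with IC50 reflecting inhibition of cell growth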
Description: SANGER: Inhibition of human SF539 cell growth in a cell viability assay.

ES5 = assay type: functional, cell-based, Homo sapiens;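 further: growth inhibition of human ES5 cells, read out by a cell viability assay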
Description: SANGER: Inhibition of human ES5 cell growth in a cell viability assay.

8-MG-BA = assay type: functional, cell-based, Homo sapiens;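 further: growth inhibition of 8-MG-BA cells, read out with a cell viability assay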
Description: SANGER: Inhibition of human 8-MG-BA cell growth in a cell viability assay.

KINGS-1 = assay type: functional, cell-based, Homo sapiens;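 further: cell viability assay measuring suppression of KINGS-1 cell growth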
Description: SANGER: Inhibition of human KINGS-1 cell growth in a cell viability assay.

For `COc1cc(N2CCC(N3CCN(C)CC3)CC2)ccc1Nc1ncc(Cl)c(Nc2ccccc2S(=O)(=O)C(C)C)n1` [TAE-684], the IC50 (LS-513; Homo sapiens, LS-513) was > 2 µM, the IC50 (SNU1; Homo sapiens, SNU1) was > 2 µM and the IC50 (NOS-1; Homo sapiens, NOS-1) was 0.103 µM. For the same compound, the IC50 (NCI-H226; Homo sapiens, NCI-H226) was > 2 µM, the IC50 (ES7; Homo sapiens, ES7) was > 2 µM and the IC50 (Mo; Homo sapiens, Mo) was > 2 µM. The IC50 (Ramos-2G6-4C10; Homo sapiens, Ramos-2G6-4C10) was > 2 µM, the IC50 (KE-37; Homo sapiens, KE-37) was > 2 µM and the IC50 (MHH-NB-11; Homo sapiens, MHH-NB-11) was > 2 µM. The IC50 (NCI-H747; Homo sapiens, NCI-H747) was 0.499 µM, the IC50 (BV-173; Homo sapiens, BV-173) was > 2 µM and the IC50 (TE-9; Homo sapiens, TE-9) was 1.11 µM. The IC50 (KARPAS-299; Homo sapiens, KARPAS-299) was 0.0238 µM, the IC50 (GB-1; Homo sapiens, GB-1) was 0.389 µM and the IC50 (JVM-2; Homo sapiens, JVM-2) was > 2 µM. The IC50 (JVM-3; Homo sapiens, JVM-3) was > 2 µM, the IC50 (COLO-320-HSR; Homo sapiens, COLO-320-HSR) was 0.198 µM and the IC50 (KU812 cell line; Homo sapiens, KU812) was > 2 µM. The IC50 (PSN1; Homo sapiens, PSN1) was 0.196 µM, the IC50 (NOMO-1; Homo sapiens, NOMO-1) was > 2 µM and the IC50 (HH; Homo sapiens, HH) was > 2 µM. For the same compound, the IC50 (LU-134-A; Homo sapiens, LU-134-A) was 0.839 µM, the IC50 (KG-1; Homo sapiens, KG-1) was 0.396 µM and the IC50 (HCC2157; Homo sapiens, HCC2157) was 1.47 µM. For the same compound, the IC50 (D-263MG; Homo sapiens, D-263MG) was > 2 µM, the IC50 (NTERA-2-cl-D1; Homo sapiens, NTERA-2-cl-D1) was 0.334 µM and the IC50 (SW872; Homo sapiens, SW872) was 0.567 µM. The IC50 (ML-2; Homo sapiens, ML-2) was 0.49 µM, the IC50 (KLE) was > 2 µM and the IC50 (TE-12; Homo sapiens, TE-12) was 0.533 µM. For the same compound, the IC50 (MEG-01; Homo sapiens, MEG-01) was > 2 µM, the IC50 (QIMR-WIL; Homo sapiens, QIMR-WIL) was > 2 µM and the IC50 (NH-12; Homo sapiens, NH-12) was > 2 µM. The IC50 (KGN; Homo sapiens, KGN) was 0.662 µM, the IC50 (HL-60; Homo sapiens, HL-60) was 0.481 µM and the IC50 (OS-RC-2; Homo sapiens, OS-RC-2) was > 2 µM. The IC50 (LB996-RCC; Homo sapiens, LB996-RCC) was 0.694 µM, the IC50 (LOX IMVI; Homo sapiens, LOX IMVI) was > 2 µM and the IC50 (MZ7-mel; Homo sapiens, MZ7-mel) was > 2 µM. The IC50 (NCI-H1650; Homo sapiens, NCI-H1650) was > 2 µM, the IC50 (TE-11) was 0.161 µM and the IC50 (CCRF-CEM; Homo sapiens, CCRF-CEM) was > 2 µM. The IC50 (ES6) was 0.776 µM, the IC50 (DSH1) was > 2 µM and the IC50 (EW-13; Homo sapiens, EW-13) was > 2 µM. The IC50 (ES8; Homo sapiens, ES8) was 0.75 µM, the IC50 (SF-539; Homo sapiens, SF-539) was < 0.00781 µM and the IC50 (ES5; Homo sapiens, ES5) was > 2 µM. For the same compound, the IC50 (8-MG-BA; Homo sapiens, 8-MG-BA) was > 2 µM and the IC50 (KINGS-1; Homo sapiens, KINGS-1) was > 2 µM.
`CC(C)C[C@@H](C=O)NC(=O)[C@H](CC(C)C)NC(=O)[C@H](CC(C)C)NC(=O)OCc1ccccc1` [MG-132] (Cbz-Leu-Leu-Leu-aldehyde) was tested, and the IC50 (LS-513; ls-513) was 0.668 µM and > 1 µM, the IC50 (SNU1; snu1) was > 1 µM and the IC50 (NOS-1; nos-1) was > 1 µM. The IC50 (NCI-H226; Homo sapiens, NCI-H226) was > 1 µM, the IC50 (NCI-H226; nci-h226) was > 1 µM and the IC50 (ES7; es7) was 0.897 µM and > 1 µM. For the same compound, the IC50 (Mo; mo) was 0.518 µM and > 1 µM, the IC50 (Ramos-2G6-4C10; Homo sapiens, Ramos-2G6-4C10) was > 1 µM and the IC50 (Ramos-2G6-4C10; ramos-2g6-4c10) was > 1 µM. The IC50 (KE-37; ke-37) was 0.133 µM and 0.639 µM, the IC50 (MHH-NB-11; Homo sapiens, MHH-NB-11) was > 1 µM and the IC50 (MHH-NB-11; mhh-nb-11) was > 1 µM. For the same compound, the IC50 (NCI-H747; Homo sapiens, NCI-H747) was 0.371 µM, the IC50 (NCI-H747; nci-h747) was 0.713 µM and the IC50 (BV-173; bv-173) was > 1 µM. The IC50 (TE-9; te-9) was 0.61 µM and > 1 µM, the IC50 (KARPAS-299; karpas-299) was > 1 µM and the IC50 (GB-1; gb-1) was 0.721 µM and > 1 µM. For the same compound, the IC50 (JVM-2; jvm-2) was > 1 µM, the IC50 (JVM-3; jvm-3) was > 1 µM and the IC50 (COLO-320-HSR; colo-320-hsr) was > 1 µM. For the same compound, the IC50 (KU812 cell line; Homo sapiens, KU812) was > 1 µM, the IC50 (KU812 cell line; ku812) was > 1 µM and the IC50 (PSN1; psn1) was > 1 µM. The IC50 (NOMO-1; Homo sapiens, NOMO-1) was > 1 µM, the IC50 (NOMO-1; nomo-1) was > 1 µM and the IC50 (HH; Homo sapiens, HH) was 0.329 µM. The IC50 (HH; hh) was 0.571 µM, the IC50 (LU-134-A; Homo sapiens, LU-134-A) was > 1 µM and the IC50 (LU-134-A; lu-134-a) was > 1 µM. The IC50 (KG-1; kg-1) was > 1 µM, the IC50 (HCC2157; hcc2157) was > 1 µM and the IC50 (D-263MG; d-263mg) was 0.16 µM and > 1 µM. For the same compound, the IC50 (NTERA-2-cl-D1; ntera-2-cl-d1) was 0.0577 µM and 0.426 µM, the IC50 (SW872; sw872) was 0.657 µM and > 1 µM and the IC50 (ML-2; ml-2) was 0.118 µM and 0.473 µM. For the same compound, the IC50 (KLE) was 0.313 µM, the IC50 (TE-12; Homo sapiens, TE-12) was > 1 µM and the IC50 (TE-12; te-12) was > 1 µM. The IC50 (MEG-01; meg-01) was > 1 µM, the IC50 (QIMR-WIL; qimr-wil) was > 1 µM and the IC50 (NH-12; nh-12) was > 1 µM. For the same compound, the IC50 (KGN; Homo sapiens, KGN) was > 1 µM, the IC50 (KGN; kgn) was > 1 µM and the IC50 (HL-60; hl-60) was > 1 µM. For the same compound, the IC50 (OS-RC-2; os-rc-2) was 0.48 µM and > 1 µM, the IC50 (LB996-RCC; lb996-rcc) was > 1 µM and the IC50 (LOX IMVI; Homo sapiens, LOX IMVI) was > 1 µM. The IC50 (LOX IMVI; lox imvi) was > 1 µM, the IC50 (MZ7-mel; mz7-mel) was 0.264 µM and > 1 µM and the IC50 (NCI-H1650; nci-h1650) was > 1 µM. For the same compound, the IC50 (TE-11) was > 1 µM, the IC50 (CCRF-CEM; ccrf-cem) was 0.477 µM and > 1 µM and the IC50 (EW-13; Homo sapiens, EW-13) was > 1 µM. The IC50 (EW-13; ew-13) was > 1 µM, the IC50 (ES8; es8) was 0.248 µM and > 1 µM and the IC50 (SF-539; sf-539) was > 1 µM. The IC50 (ES5; es5) was > 1 µM, the IC50 (8-MG-BA; 8-mg-ba) was 0.398 µM and > 1 µM and the IC50 (KINGS-1; kings-1) was 0.148 µM and 0.628 µM.
